± gives the standard deviation of the averaged measurements.
How the values were obtained:
Conditions in all cases: 72 h
[1] = tested on: Caco-2; test: cell viability relative to DMSO; higher = less toxic
[2] = tested on: Calu-3; test: as above
[3] = tested on: HepG2; test: as above
[4] = tested on: U2OS; test: as above
[5] = tested on: Vero E6; test: as above
[6] = tested on: Caco-2; test: relative viability EC50 (midpoint between 100% and the lowest measured viability); higher = less toxic
[7] = tested on: Calu-3; test: as above
[8] = tested on: HepG2; test: as above
[9] = tested on: U2OS; test: as above
[10] = tested on: Vero E6; test: as above
[11] = tested on: Caco-2; test: drug sensitivity score (DSS) for viability; higher = more toxic; extreme values may be limits of the assay
[12] = tested on: Calu-3; test: as above
[13] = tested on: HepG2; test: as above
[14] = tested on: U2OS; test: as above
[15] = tested on: Vero E6; test: as above

| SMILES | cell viability ([1]; 1 nM) [%] | cell viability ([1]; 10 nM) [%] | cell viability ([1]; 100 nM) [%] | cell viability ([1]; 1000 nM) [%] | cell viability ([1]; 10000 nM) [%] | cell viability ([2]; 1 nM) [%] | cell viability ([2]; 10 nM) [%] | cell viability ([2]; 100 nM) [%] | cell viability ([2]; 1000 nM) [%] | cell viability ([2]; 10000 nM) [%] | cell viability ([3]; 1 nM) [%] | cell viability ([3]; 10 nM) [%] | cell viability ([3]; 100 nM) [%] | cell viability ([3]; 1000 nM) [%] | cell viability ([3]; 10000 nM) [%] | cell viability ([4]; 1 nM) [%] | cell viability ([4]; 10 nM) [%] | cell viability ([4]; 100 nM) [%] | cell viability ([4]; 1000 nM) [%] | cell viability ([4]; 10000 nM) [%] | cell viability ([5]; 1 nM) [%] | cell viability ([5]; 10 nM) [%] | cell viability ([5]; 100 nM) [%] | cell viability ([5]; 1000 nM) [%] | cell viability ([5]; 10000 nM) [%] | relative viability EC50 [6] [µM] | relative viability EC50 [7] [µM] | relative viability EC50 [8] [µM] | relative viability EC50 [9] [µM] | relative viability EC50 [10] [µM] | drug sensitivity score [11] | drug sensitivity score [12] | drug sensitivity score [13] | drug sensitivity score [14] | drug sensitivity score [15] |
| --- | --- | --- | --- | --- | --- | --- | --- | --- | --- | --- | --- | --- | --- | --- | --- | --- | --- | --- | --- | --- | --- | --- | --- | --- | --- | --- | --- | --- | --- | --- | --- | --- | --- | --- | --- |
| Cc1cc2c(C(N)=O)cccc2n1-c1nc2c(c(NCc3ccccc3)n1)COCC2 [CB-5083] | 97.8 | 92.8 | 103 | 50.1 | 13.6 | 101 | 94.3 | 104 | 47.1 | 1.7 | 107 | 95 | 104 | 2.8 | -0.2 | 100 | 102 | 98.4 | 87.1 | -0.3 | 98.8 | 103 | 102 | 1.1 | -0.4 | 0.883 | 0.941 | 0.36 | 2.12 | 0.338 | 10.8 | 11.9 | 17.3 | 7.7 | 17.6 |
| CN(C)c1cccc(-c2c3c(=O)n(-c4ccccc4Cl)[nH]c3cc(=O)n2C)c1 | 100 | 98.3 | 101 | 93.1 | 84.6 | 89.9 | 91.3 | 100 | 97.7 | 92.6 | 99.2 | 104 | 94.2 | 97.2 | 87.6 | 99.8 | 96.6 | 101 | 95.2 | 93.7 | 101 | 104 | 99.6 | 102 | 104 | > 10 | > 10 | > 10 | > 10 | > 10 | 0.8 | 0 | 0 | 0 | 0 |
| CC(C(=O)O)c1ccc(C(=O)c2cccs2)cc1 (stereo not given) [suprofen] | 105 | 98 | 101 | 98 | 90.8 | 97.9 | 103 | 89 | 86.6 | 89.8 | 102 | 93.2 | 92.9 | 86.8 | 85.3 | 101 | 93.5 | 97.4 | 97 | 103 | 97.7 | 97.9 | 95.4 | 102 | 98.7 | > 10 | > 10 | > 10 | > 10 | > 10 | 0 | 1.6 | 1.1 | 0 | 0 |
| Fc1ccc(CN2CCC(Nc3ccc(C(F)(F)F)nn3)CC2)cc1F | 100 | 95.8 | 101 | 94.7 | 94.1 | 112 | 97.6 | 86.9 | 91.7 | 107 | 90.1 | 108 | 91.2 | 88.1 | 93.4 | 101 | 95.5 | 95.6 | 102 | 101 | 90.3 | 101 | 97.4 | 98.5 | 104 | > 10 | > 10 | > 10 | > 10 | > 10 | 0 | 0 | 0.8 | 0 | 0 |
| Cc1cc(Cl)ccc1OCCCC(=O)NO [droxinostat] | 104 | 101 | 101 | 102 | 86.5 | 96.3 | 92.8 | 88.8 | 97.6 | 86.8 | 100 | 92.4 | 90.7 | 97.4 | 87 | 96.9 | 106 | 96.6 | 100 | 79.5 | 103 | 99.4 | 98.8 | 97 | 86.7 | > 10 | > 10 | > 10 | > 10 | > 10 | 0.1 | 0 | 0 | 0.6 | 0.3 |
| Cc1nc2ccccc2c(-c2ccc3c4c(ccnc24)CCO3)c1[C@H](OC(C)(C)C)C(=O)O | 109 | 98.1 | 110 | 113 | 113 | 88.3 | 102 | 85.5 | 109 | 105 | 103 | 84.3 | 95.2 | 94.4 | 87.1 | 97.6 | 97.2 | 99 | 101 | 99.1 | 111 | 99.3 | 102 | 101 | 95.2 | > 10 | > 10 | > 10 | > 10 | > 10 | 0 | 0 | 0.1 | 0 | 0 |
| CC(C)=CCC/C(C)=C/CC/C(C)=C/CCC(=O)OC/C=C(\C)CCC=C(C)C [geranyl-farnesylacetate] | 95.6 | 95.8 | 106 | 91.4 | 98.9 | 99.1 | 94.6 | 96.8 | 93 | 96.4 | 101 | 107 | 90.8 | 112 | 110 | 98.4 | 95.3 | 102 | 96.7 | 103 | 104 | 102 | 94.4 | 105 | 115 | > 10 | > 10 | > 10 | > 10 | > 10 | 0 | 0 | 0 | 0 | 0 |
| O=C(CO)[C@@H](O)[C@@H](O)[C@H](O)CO [tagatose] | 98.5 | 94.4 | 103 | 106 | 99.3 | 98.4 | 99.6 | 99.7 | 97 | 102 | 101 | 91.6 | 97.6 | 94.9 | 106 | 89.1 | 95.3 | 92.7 | 102 | 107 | 93.7 | 94.5 | 92.1 | 85.3 | 110 | > 10 | > 10 | > 10 | > 10 | > 10 | 0 | 0 | 0 | 0 | 0 |
| NCCCC[C@@H]1NC(=O)[C@@H](Cc2c[nH]c3ccccc23)NC(=O)[C@H](c2ccccc2)NC(=O)[C@@H]2C[C@@H](OC(=O)NCCN)CN2C(=O)[C@H](Cc2ccccc2)NC(=O)[C@H](Cc2ccc(OCc3ccccc3)cc2)NC1=O [pasireotide] | 108 | 107 | 88.4 | 110 | 146 | 102 | 101 | 87.8 | 106 | 108 | 91.9 | 105 | 114 | 102 | 93.3 | 96.7 | 104 | 95.8 | 102 | 108 | 98.9 | 89 | 96 | 83.6 | 96.8 | > 10 | > 10 | > 10 | > 10 | > 10 | 0 | 0 | 0 | 0 | 0 |
| O=C(O)CSCC(=O)NC1CCSC1=O (stereo not given) [erdosteine] | 107 | 102 | 97 | 84.8 | 96.9 | 99.8 | 96 | 102 | 92.9 | 98 | 90.5 | 102 | 94.3 | 93.8 | 102 | 100 | 105 | 96.2 | 97.9 | 101 | 111 | 96.9 | 104 | 91 | 96.8 | > 10 | > 10 | > 10 | > 10 | > 10 | 0 | 0 | 0 | 0 | 0 |
| O=C(O)[C@H](O)[C@@H](O)[C@H](O)[C@H](O)CO [sodium-gluconate] | 104 | 101 | 104 | 113 | 92.2 | 106 | 96.6 | 108 | 109 | 105 | 79.7 | 108 | 94.3 | 92.7 | 91 | 96.9 | 97 | 98.2 | 99.8 | 103 | 96.9 | 107 | 102 | 93.5 | 105 | > 10 | > 10 | > 10 | > 10 | > 10 | 0 | 0 | 0 | 0 | 0 |
| CC(C)(C)NS(=O)(=O)c1cncc(-c2cc(F)c3nc(N)nn3c2)c1 | 95.6 | 91.8 | 106 | 87.7 | 107 | 96.1 | 82.5 | 95.2 | 84.2 | 97.1 | 94.7 | 106 | 90.7 | 101 | 105 | 98.5 | 92.5 | 97.9 | 95.8 | 95.9 | 93.5 | 99.3 | 94 | 96.3 | 100 | > 10 | > 10 | > 10 | > 10 | > 10 | 0 | 0 | 0 | 0 | 0 |
| CCCCCCCCCC(=O)O[C@H]1CC[C@H]2[C@@H]3CCC4=CC(=O)CC[C@@H]4[C@H]3CC[C@]12C [Nandrolone decanoate] | 90.7 | 104 | 96.2 | 106 | 96.4 | 94.1 | 88.6 | 83 | 90.9 | 89 | 104 | 95.7 | 97.9 | 102 | 101 | 102 | 99.3 | 99.1 | 101 | 94 | 108 | 97.1 | 102 | 97.5 | 104 | > 10 | > 10 | > 10 | > 10 | > 10 | 0 | 0 | 0 | 0 | 0 |
| CC(=O)OCC(=O)[C@@]12OC(C)(C)O[C@@H]1C[C@H]1[C@@H]3C[C@H](F)C4=CC(=O)C=C[C@]4(C)[C@@]3(F)[C@@H](O)C[C@@]12C [fluocinonide] | 91.5 | 95.6 | 93.8 | 104 | 99.2 | 102 ± 7.5 | 97.2 ± 6 | 87.8 ± 1.1 | 98.2 ± 3.8 | 101 ± 3.7 | 100 ± 2.5 | 95.5 ± 6 | 101 ± 8.3 | 104 ± 1.2 | 100 ± 6.2 | 98.5 ± 1.5 | 96 ± 3.3 | 95.2 ± 1.4 | 96.7 ± 4.4 | 98.7 ± 4.3 | 101 ± 7.7 | 93.6 ± 0.57 | 97.9 ± 13 | 96.7 ± 5.4 | 98.5 ± 2.8 | > 10 | > 10 | > 10 | > 10 | > 10 | 0 | 0 | 0 | 0 | 0 |
